The source made the active and inactive calls. No cut-off for these calls is given here.
What was measured:
[1] = biological target: MDR1 (ABCB1, P-glycoprotein) (Homo sapiens, UniProt P08183); assay: Inhibition of human MDR1 expressed in MDCK2 cells assessed as increase of rhodamine 123 uptake at 30 uM up to 240 mins relative to 5 uM tariquidar; type: ADME, cell-based, MDCK-II; settings: MDCK2 cells expressing human MDR1, probe rhodamine 123, read-out: Activity
Fort Morgan virus [2] = type: functional
[3] = test system: Western equine encephalitis virus; assay: microbe, parasite or virus in culture; settings: BE(2)-C
Fort Morgan virus [4] = type: functional; remark: listed apart in the source
Fort Morgan virus [5] = type: functional; remark: listed apart in the source
Fort Morgan virus [6] = type: functional; remark: listed apart in the source
[7] = test system: Western equine encephalitis virus; type: functional
Liver = assay: (§1) Half life in BALB/c mouse liver microsomes at 1 uM in presence of NADPH by HPLC-MS/MS method; type: ADME; settings: microsomes, 1 µM
[8] = test system: Western equine encephalitis virus; type: functional; remark: listed apart in the source
[9] = Kinetic solubility of the compound in WEEV replication assay medium in presence of 10% fetal bovine serum; type: physicochemical; settings: for solubility kinetic: WEEV replication assay medium with 10% fetal bovine serum, read-out: Kinetic_solubility; for Kinetic_solubility: serum
[10] = Cytotoxicity against human BE(2)-C cells after 18 to 20 hrs by MTT assay; type: cell-based
BSR-T7 = assay: Inhibition of host cell cap-independent translation in Cricetinae BSR-T7 cells assessed as suppression of pT7/CITE-LUC activity at 0.1 to 10 uM after 20 hrs; type: functional, cell-based
[11] = test system: Venezuelan equine encephalitis virus; assay: Antiviral activity against Venezuelan equine encephalitis virus TC-83 vaccine infected in HEK293 cells assessed as reduction of viral titer at 25 uM by plaque reduction assay relative to untreated control; type: functional
[12] = test system: Encephalomyocarditis virus; assay: Antiviral activity against Encephalomyocarditis virus infected in HEK293 cells assessed as reduction of viral titer at 25 uM by plaque reduction assay relative to untreated control; type: functional
Fort Morgan virus [13] = assay: Antiviral activity against Fort Morgan virus infected in HEK293 cells assessed as reduction of viral titer by plaque reduction assay relative to untreated control; type: functional, cell-based
[14] = Inhibition of host cell cap-dependent translation in Cricetinae BSR-T7 cells assessed as suppression of pSV40-LUC activity at 0.1 to 10 uM after 20 hrs; type: functional, cell-based
[15] = test system: California encephalitis virus; assay: Antiviral activity against California encephalitis virus infected in HEK293 cells assessed as reduction of viral titer at 25 uM by plaque reduction assay relative to untreated control; type: functional
[16] = as §1; type: ADME; settings: BALB/c, liver microsomes
[17] = biological target: ATP-dependent translocase ABCB1 (Homo sapiens, UniProt P08183); assay: Inhibition of human MDR1 expressed in MDCK2 cells assessed as increase of rhodamine 123 uptake at 5 uM up to 240 mins; type: ADME, cell-based; design: scale not given: the % may be the effect or the level left; settings: mdck-ii, 4 h
ATP-dependent translocase ABCB1, sequence (P08183 whole entry): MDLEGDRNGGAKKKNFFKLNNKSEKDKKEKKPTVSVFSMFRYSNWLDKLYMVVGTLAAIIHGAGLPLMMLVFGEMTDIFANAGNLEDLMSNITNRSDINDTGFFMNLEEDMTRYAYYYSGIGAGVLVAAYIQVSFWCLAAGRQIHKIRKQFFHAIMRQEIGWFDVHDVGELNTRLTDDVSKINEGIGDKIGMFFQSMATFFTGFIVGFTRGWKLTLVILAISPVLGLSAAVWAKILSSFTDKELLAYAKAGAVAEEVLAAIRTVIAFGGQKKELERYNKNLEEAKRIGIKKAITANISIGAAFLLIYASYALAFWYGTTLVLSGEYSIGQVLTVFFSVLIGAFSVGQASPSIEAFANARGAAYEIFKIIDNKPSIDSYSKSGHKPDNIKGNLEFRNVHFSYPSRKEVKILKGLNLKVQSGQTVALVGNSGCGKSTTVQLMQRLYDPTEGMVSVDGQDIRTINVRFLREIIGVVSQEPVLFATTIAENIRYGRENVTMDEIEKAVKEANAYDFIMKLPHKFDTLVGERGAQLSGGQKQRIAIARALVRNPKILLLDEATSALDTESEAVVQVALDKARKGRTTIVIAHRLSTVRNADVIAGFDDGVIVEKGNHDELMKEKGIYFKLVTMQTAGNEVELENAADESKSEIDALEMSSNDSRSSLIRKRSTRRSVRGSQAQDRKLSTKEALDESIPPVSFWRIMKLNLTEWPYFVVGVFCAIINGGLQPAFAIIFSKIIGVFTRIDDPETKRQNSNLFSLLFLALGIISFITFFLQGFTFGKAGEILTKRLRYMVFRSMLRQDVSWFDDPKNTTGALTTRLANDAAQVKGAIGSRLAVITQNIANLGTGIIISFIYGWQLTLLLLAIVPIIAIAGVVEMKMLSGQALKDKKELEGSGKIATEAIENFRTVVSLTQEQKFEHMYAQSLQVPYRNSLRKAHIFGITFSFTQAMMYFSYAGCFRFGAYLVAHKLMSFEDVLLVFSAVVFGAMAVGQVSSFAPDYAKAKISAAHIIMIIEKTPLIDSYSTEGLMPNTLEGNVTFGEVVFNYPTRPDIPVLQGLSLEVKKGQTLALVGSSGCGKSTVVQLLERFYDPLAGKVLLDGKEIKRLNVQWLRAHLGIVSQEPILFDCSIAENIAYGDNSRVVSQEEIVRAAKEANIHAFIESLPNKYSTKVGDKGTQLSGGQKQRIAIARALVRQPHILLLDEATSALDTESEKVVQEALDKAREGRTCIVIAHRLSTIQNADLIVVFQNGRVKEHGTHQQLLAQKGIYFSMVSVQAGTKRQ

MDR1 (ABCB1, P-glycoprotein), sequence (P08183 whole entry): as above

Row | Compound | inhibition at 4 h, 30 µM [1] | IC50 [3] | CC50 [10] | Kinetic_solubility [9] | further results
1 | O=C(NCCc1ccncc1)C1CCN(C(=O)c2ccccc2Oc2ccc(Cl)cc2)CC1 | 9.3% | 6.1 µM | 56 µM |  | Activity (Fort Morgan virus [2]; 5 uM): inactive; Activity (Fort Morgan virus [4]; 25 uM): inactive; Activity (Fort Morgan virus [5]; 25 uM): inactive; Activity (Fort Morgan virus [6]; 5 uM): inactive; Activity ([7]; 5 uM): inactive; t1/2 (Liver): 18 min; Activity ([8]; 25 uM): inactive; solubility kinetic [9]: 62 µg/mL
2 | O=C(NCCc1ccncc1)C1CCN(C(=O)NCc2ccc(Cl)cc2)CC1 |  | 60.2 µM | > 100 µM |  | 
3 | O=C(NCCc1ccncc1)C1CCN(c2cc(=O)n(-c3ccc(Cl)cc3)c3ccccc23)CC1 |  |  | > 100 µM |  | 
4 | O=C(NCCc1ccncc1)C1CCN(C(=O)c2ccccc2NCCc2ccc(Cl)cc2)CC1 | 30.7% | 3.49 µM | 86 µM | > 250 µg/mL | 
5 | O=C(NCCc1ccncc1)C1CCN(C(=O)c2ccccc2Nc2ccc(Cl)cc2)CC1 | 47.7% | 1.6 µM | > 100 µM | > 250 µg/mL | Activity (Fort Morgan virus [4]): 3.7 ×10⁶ PFU/ml; inhibition (BSR-T7): inactive; Activity (Fort Morgan virus [5]): 58.1%; Activity (Fort Morgan virus [6]): 54.6%; fold change (FC) [11]: 10; fold change (FC) [12]: 10; Activity [7]: 49.2 ×10⁶ PFU/ml; IC50 (Fort Morgan virus [13]): 5.2 µM; inhibition (Fort Morgan virus [13]): Dose-dependent effect; IC50 [14]: 2.2 µM; t1/2 (Liver): 19 min; Activity [8]: 3.2 ×10⁶ PFU/ml; fold change (FC) [15]: 10
6 | CN(c1ccc(Cl)cc1)c1ccccc1C(=O)N1CCC(C(=O)NCCc2ccncc2)CC1 | 3.9% | 15.4 µM | > 100 µM | > 250 µg/mL | 
7 | O=C(NCCc1ccncc1)C1CCN(C(=O)c2ccccc2Cc2ccc(Cl)cc2)CC1 | 22.6% | 1.46 µM | 70.7 µM |  | t1/2 (Liver): 3 min; solubility kinetic [9]: 62 µg/mL
8 | O=C(NCCc1ccncc1)C1CCN(C(=O)c2ccccc2NCc2ccccc2)CC1 | 2.5% | 19 µM | 92.2 µM | > 250 µg/mL | 
9 | O=C(NCCc1ccncc1)C1CCN(C(=O)CCc2ccc(Cl)cc2)CC1 |  | > 100 µM | > 100 µM |  | 
10 | O=C(NCCc1ccncc1)C1CCN(C(=O)c2cc3ccccc3n2Cc2ccc(Cl)cc2)CC1 |  | 0.53 µM |  |  | IC50 (Fort Morgan virus [13]): 1 µM; IC50 [14]: 0.1 µM; half-life at 1 µM [16]: 9 min; solubility kinetic [9]: 31 µg/mL
11 | O=C(NCCc1ccncc1)C1CCN(C(=O)[C@H]2CCCN2C(=O)c2ccc(Cl)cc2)CC1 |  | > 100 µM | > 100 µM |  | 
12 | O=C(NCCc1ccncc1)C1CCN(C(=O)c2ccccc2Nc2ccccc2)CC1 | 10.9% | 28.8 µM | > 100 µM | > 250 µg/mL | 
13 | COc1cc2c(cc1OC)CN(CCc1ccc(NC(=O)c3cc(OC)c(OC)cc3NC(=O)c3cnc4ccccc4c3)cc1)CC2 |  |  |  |  | Activity [17]: 1123%
14 | O=C(NCCc1ccncc1)C1CCN(C(=O)[C@H]2CCCN2Cc2ccc(Cl)cc2)CC1 |  | 53.5 µM | > 100 µM |  | 
15 | O=C(NCCc1ccncc1)C1CCN(C(=O)[C@@H]2CCCN2C(=O)c2ccc(Cl)cc2)CC1 |  | > 100 µM |  |  | 
16 | O=C(NCCc1ccncc1)C1CCN(C(=O)c2cccn2Cc2ccc(Cl)cc2)CC1 |  | 0.68 µM | > 100 µM |  | half-life at 1 µM [16]: 3 min; solubility kinetic [9]: 125 µg/mL
17 | O=C(NCCc1ccncc1)C1CCN(c2cc(=O)n(Cc3ccc(Cl)cc3)c3ccccc23)CC1 |  | 10.9 µM | 34.1 µM |  | 
18 | O=C(NCCc1ccncc1)C1CCN(C(=O)c2ccccc2NCc2ccc(Cl)cc2)CC1 | 59.6% | 0.56 µM | 75.2 µM | > 250 µg/mL | Activity (Fort Morgan virus [2]): 9.4 ×10⁶ PFU/ml; Activity (Fort Morgan virus [4]): 3.2 ×10⁶ PFU/ml; inhibition (BSR-T7): inactive; Activity (Fort Morgan virus [5]): 66.6%; Activity (Fort Morgan virus [6]): 73.3%; fold change (FC) [11]: 10; fold change (FC) [12]: 10; Activity [7]: 11.7 ×10⁶ PFU/ml; IC50 (Fort Morgan virus [13]): 2.3 µM; inhibition (Fort Morgan virus [13]): Dose-dependent effect; IC50 [14]: 1 µM; t1/2 (Liver): 15 min; Activity [8]: 1.6 ×10⁶ PFU/ml; fold change (FC) [15]: 10
19 | O=C(c1ccc(Cl)cc1)c1ccccc1C(=O)N1CCC(C(=O)NCCc2ccncc2)CC1 | 1.8% | > 50 µM | > 50 µM | > 250 µg/mL | 
20 | O=C(NCCc1ccncc1)C1CCN(C(=O)c2cccc3c2[nH]c2ccccc23)CC1 |  | 59.2 µM | > 100 µM |  | 
21 | O=C(NCCc1ccncc1)C1CCN(C(=O)Cc2ccc(Cl)cc2)CC1 |  | > 100 µM | > 100 µM |  | 
22 | O=C(NCCc1ccncc1)C1CCN(C(=O)[C@@H]2CCCN2Cc2ccc(Cl)cc2)CC1 |  | 13.5 µM | 91.6 µM |  | 
23 | O=C(NCCc1ccncc1)C1CCN(C(=O)c2cccc3c2[nH]c2ccc(Cl)cc23)CC1 |  | 18.7 µM | 66.1 µM |  | 

Reference: ChEMBL document CHEMBL3396967, “Discovery of anthranilamides as a novel class of inhibitors of neurotropic alphavirus replication” (Bioorg Med Chem, 2015)
